Results from the NIST ThermoML archive (doi:10.1016/j.jct.2013.09.035).

Settings: Liquid, Vibrating tube method

FCC(F)(F)F [1,1,1,2-tetrafluoroethane]
Settings	mass density [kg/m3]
283.25 K, 60000 kPa	1416.44
283.26 K, 1000 kPa	1265.88
283.26 K, 5000 kPa	1282.35
283.26 K, 10000 kPa	1300.86
283.26 K, 20000 kPa	1331.64
283.26 K, 40000 kPa	1379.61
283.26 K, 80000 kPa	1446.35
302.84 K, 20000 kPa	1276.99
302.84 K, 40000 kPa	1333.11
302.84 K, 80000 kPa	1408.64
302.85 K, 1000 kPa	1190.34
302.85 K, 5000 kPa	1214.03
302.85 K, 10000 kPa	1238.45
302.85 K, 60000 kPa	1374.79
322.62 K, 5000 kPa	1140.59
322.63 K, 10000 kPa	1174.6
322.63 K, 20000 kPa	1224.02
322.64 K, 40000 kPa	1290.68
322.64 K, 60000 kPa	1338.04
322.64 K, 80000 kPa	1375.39
342.56 K, 5000 kPa	1047.23
342.56 K, 10000 kPa	1098.48
342.56 K, 20000 kPa	1163.35
342.56 K, 40000 kPa	1242.84
342.57 K, 60000 kPa	1296.48
342.57 K, 80000 kPa	1337.6
362.57 K, 5000 kPa	924.58
362.58 K, 10000 kPa	1014.86
362.58 K, 20000 kPa	1102.88
362.58 K, 40000 kPa	1197.86
362.58 K, 60000 kPa	1258.31
362.58 K, 80000 kPa	1303.78
